This passage reports TD50 and IC50 results from US8008303B2, “Biphenyl derivatives and their use in treating hepatitis C” (AstraZeneca AB, priority 2005, dated 2011).

Series [1] concerns HCV replicon cells Huh 9B. In kind it is cell-based.
For series [2], the system named is HCV replicon cells Huh 9B. As to the kind of experiment: HCV replicon assay (luciferase readout). In kind it is cell-based. The essentials:
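Compounds, made up at twice final strength (final DMSO 1%), were added to subgenomic replicon cells one day after plating. Incubation then ran 72 h at 37 °C, 5% CO2, without G418. Replication was quantified as firefly luciferase luminescence in lysed cells, with cytotoxicity assessed on a duplicate clear plate.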

The mark [3] stands for this setting: concentration reducing total cell area by 50% relative to DMSO controls, methylene blue, absorbance 620 nm, 72 h incubation.
Where [4] appears, read: Hepatitis C virus, 72 h, concentration reducing replicon level (luciferase activity) by 50% vs untreated cell control, 72 h incubation.

Read-outs that look alike come from different tables or passages of the source.

Take `Cc1ccc(NC(=O)c2cn[nH]c2)cc1-c1ccc(C(=O)Nc2ccc(N3CCOCC3)cc2)cc1` [Example 108, 1H-Pyrazole-4-carboxylic acid [6-methyl-4′-(4-morpholin-4-yl-phenylcarbamoyl)-biphenyl-3-yl]-amide]: in series [1] (setting [3]), the TD50 result is on record as “** (** > 50 μM)”. For the same compound, the half-maximal inhibitory concentration (IC50) (usually the point on the concentration scale where inhibition reaches its midpoint) in series [2] (setting [4]) lay in the range of 1000 to 5000 nM.
Consider `Cc1ccc(C(=O)Nc2ccc(N3CCOCC3)cc2)cc1-c1ccc(C(=O)Nc2ccc(CN3CCCCC3)cc2)cc1` [Example 73, 6-Methyl-biphenyl-3,4′-dicarboxylic acid 3-[(4-morpholin-4-yl-phenyl)-amide] 4′-[(4-piperidin-1-ylmethyl-phenyl)-amide]], for which the TD50 result in series [1] is recorded as “* (key: * < 50 μM; ** > 50 μM)”. The same compound showed an IC50 in series [2] below 1000 nM.
For `CS(=O)(=O)N1CCN(Cc2ccc(NC(=O)c3ccc(-c4cc(C(=O)Nc5ccc(N6CCOCC6)cc5)ccc4OC(F)(F)F)cc3)cc2)CC1` [Example 256, 6-Trifluoromethoxy-biphenyl-3,4′-dicarboxylic acid 4′-{[4-(4-methanesulfonyl-piperazin-1-ylmethyl)-phenyl]-amide} 3-[(4-morpholin-4-yl-phenyl)-amide]], the TD50 result in series [1] was “* (key: * < 50 μM; ** > 50 μM)”. The compound also registered an IC50 in series [2] below 1000 nM.
Consider `Cc1ccc(NC(=O)CC2CCCC2)cc1-c1ccc(C(=O)Nc2ccc(CN3CCS(=O)(=O)CC3)cc2)cc1` [Example 166, 5′-(2-Cyclopentyl-acetylamino)-2′-methyl-biphenyl-4-carboxylic acid [4-(1,1-dioxo-1lambda*6*-thiomorpholin-4-ylmethyl)-phenyl]-amide], for which the TD50 result in series [1] (setting [3]) is given as “* (* < 50 μM)”. Further, the IC50 in series [2] (setting [4]) is below 1000 nM.
Turning to `Cc1cc(NC(=O)C2CC2)ccc1-c1cccc(C(=O)Nc2ccc(N3CCOCC3)cc2)c1` [Example 113, 4′-(Cyclopropanecarbonyl-amino)-2′-methyl-biphenyl-3-carboxylic acid (4-morpholin-4-yl-phenyl)-amide], the TD50 result in series [1] (setting [3]) is reported as “* (* < 50 μM)”. In addition, in series [2] (setting [4]), the IC50 was above 5000 nM.
Take `Cc1ccc(C(=O)Nc2ccc(N3CCOCC3)cc2)cc1-c1ccc(C(=O)Nc2cccc(NS(C)(=O)=O)c2)cc1` [Example 78, 6-Methyl-biphenyl-3,4′-dicarboxylic acid 4′-[(3-methanesulfonylamino-phenyl)-amide] 3-[(4-morpholin-4-yl-phenyl)-amide]]: the TD50 result in series [1] is given as “* (key: * < 50 μM; ** > 50 μM)”. In addition, in series [2], the IC50 fell in the range of 1000 to 5000 nM.
As to `Cc1cc(NC(=O)C2CC2)ccc1-c1cccc(C(=O)Nc2ccc(CN3CCS(=O)(=O)CC3)cc2)c1` [Example 131, 4′-(Cyclopropanecarbonyl-amino)-2′-methyl-biphenyl-3-carboxylic acid [4-(1,1-dioxo-1lambda*6*-thiomorpholin-4-ylmethyl)-phenyl]-amide], in series [1] (setting [3]), the TD50 result was “* (* < 50 μM)”. In series [2] (setting [4]), this compound displayed an IC50 of 1000 to 5000 nM.
Regarding `CCOC(=O)c1ccc(-c2cc(C(=O)Nc3ccc(N4CCOCC4)cc3)ccc2C)cc1` [Example 84, 2′-Methyl-5′-(4-morpholin-4-yl-phenylcarbamoyl)-biphenyl-4-carboxylic acid ethyl ester], the TD50 entry in series [1] (setting [3]) is recorded as “** (** > 50 μM)”. Further, the IC50 in series [2] (setting [4]) was above 5000 nM.
Take `Cc1ccc(C(=O)Nc2ccc(N3CCOCC3)cc2)cc1-c1ccc(NC(=O)c2ccccc2O)cc1` [Example 109, 4′-(2-Hydroxy-benzoylamino)-6-methyl-biphenyl-3-carboxylic acid (4-morpholin-4-yl-phenyl)-amide]: in series [1] (setting [3]), the TD50 entry is listed as “* (* < 50 μM)”. In series [2] (setting [4]), this compound yielded an IC50 of 1000 to 5000 nM.
As for `Cc1cccc(CNC(=O)c2ccc(-c3cc(NC(=O)c4ccncc4)ccc3C)cc2)c1` [Example 215, N-[6-Methyl-4′-(3-methyl-benzylcarbamoyl)-biphenyl-3-yl]-isonicotinamide], the TD50 result in series [1] (setting [3]) is reported as “* (* < 50 μM)”. The compound also had an IC50 in series [2] (setting [4]) above 5000 nM.
